Experimental data taken from patent publication US6376518B1, “Acyl derivatives of 4-demethylpenclomedine, use thereof and preparation thereof” (Southern Research Institute, priority 1999, dated 2002).
Like-named read-outs stand apart in the source and are kept apart here.

Legend:
[1] = system: human MX-1 mammary tumor; test: In vivo antitumor activity vs i.c.-implanted human MX-1 mammary tumor xenograft in athymic mice; details: ic MX-1; for Median % ILS (dying mice only) / Tumor-Free-Surv/Total: Days 1-5
[2] = system: human MX-1 mammary tumor; test: In vivo antitumor activity vs s.c.-implanted human MX-1 mammary tumor xenograft in athymic mice; details: sc MX-1, Days 12-16
[3] = system: P388/0 leukemia; details: P388/0; for MEDIAN DAY OF DEATH: dying mice only
[4] = system: P388/BCNU leukemia; test: Antitumor activity against IP-implanted P388/BCNU leukemia in mice; details: P388/BCNU; for MEDIAN DAY OF DEATH: dying mice only
[5] = system: P388/L-PAM leukemia; details: for MEDIAN DAY OF DEATH: dying mice only
[6] = system: P388/CPA leukemia; test: Antitumor activity against IP-implanted P388/CPA leukemia in mice; type: in vivo, murine; details: P388/CPA; for MEDIAN DAY OF DEATH: dying mice only
[7] = optimal doses (LD10 or less), schedule QD1-5, administered LP.
[8] = IP 20.0 mg/kg/dose, Q1D × 1 (1)
[9] = IP 30.0 mg/kg/dose, Q1D × 1 (1)
[10] = P388/L-PAM, IP 15.0 mg/kg/dose, Q1D × 1 (1)
[11] = P388/L-PAM, IP 20.0 mg/kg/dose, Q1D × 1 (1)
[12] = P388/L-PAM, IP 60.0 mg/kg/dose, Q1D × 5 (1)
[13] = P388/L-PAM, IP 90.0 mg/kg/dose, Q1D × 5 (1)
[14] = P388/L-PAM, IP 135.0 mg/kg/dose, Q1D × 5 (1)
[15] = IP 60.0 mg/kg/dose, Q1D × 5 (1)
[16] = IP 90.0 mg/kg/dose, Q1D × 5 (1)
[17] = IP 135.0 mg/kg/dose, Q1D × 5 (1)
[18] = IP 175.0 mg/kg/dose, Q1D × 1 (1)
[19] = IP 265.0 mg/kg/dose, Q1D × 1 (1)

SMILES: COc1nc(C(Cl)(Cl)Cl)c(Cl)c(OC(=O)Cc2cccs2)c1Cl [DM-TA-PEN]
- Median % ILS (dying mice only) ([1]; IP 90 mg/kg/dose): +75%
- Tumor-Free-Surv/Total ([2]; IP 90 mg/kg/dose): 3/5

SMILES: COc1nc(C(Cl)(Cl)Cl)c(Cl)c(OC(=O)c2ccncc2)c1Cl [DM-IN-PEN]
- Dose (mg/kg) with observed lethality level ([2]; IP 90 mg/kg/dose): 90 (LD20)
- Tumor-Free-Surv/Total ([2]; IP 90 mg/kg/dose): 3/5

SMILES: COc1nc(C(Cl)(Cl)Cl)c(Cl)c(OC(=O)C(Cl)Cl)c1Cl [DM-DCA-PEN]
- Tumor-Free-Surv/Total ([2]; IP 135 mg/kg/dose): 2/5

SMILES: COc1nc(C(Cl)(Cl)Cl)c(Cl)c(OC(=O)c2c(Cl)cc(Cl)cc2Cl)c1Cl [DM-TCB-PEN]
- Median % ILS (dying mice only) ([1]; IP 135 mg/kg/dose): +92%
- Tumor-Free-Surv/Total ([1]; IP 135 mg/kg/dose): 1/5

SMILES: COc1nc(C(Cl)(Cl)Cl)c(Cl)c(OC(=O)c2ccco2)c1Cl [DM-F-PEN]
- activity against i.c.-implanted tumor in comparison to PEN and DM-PEN (in words) [1]: significant activity
- Tumor-Free-Surv/Total ([1]; IP 135 mg/kg/dose): 2/5
- Survivors [1, 7]: 2/5
- Tumor-Free-Surv/Total ([2]; IP 90 mg/kg/dose): 5/5

SMILES: COc1nc(C(Cl)(Cl)Cl)c(Cl)c(OC(=O)CI)c1Cl [DM-IA-PEN]
- Dose (mg/kg) with observed lethality level ([2]; IP 60 mg/kg/dose): 60 (LD40)
- Tumor-Free-Surv/Total ([2]; IP 60 mg/kg/dose): 1/5

SMILES: O=NN(CCCl)C(=O)NCCCl [BCNU (carmustine), carmustine]
- 50-DAY SURV/TOTAL [3, 8]: 3/6
- APPROX. NET LOG10 CHANGE IN TUMOR BURDEN AT END OF Rx [3, 8]: ca −8.8
- MEDIAN DAY OF DEATH [3, 8]: 27.0
- 50-DAY SURV/TOTAL [3, 9]: 6/6
- 50-DAY SURV/TOTAL [4, 8]: 0/6
- % ILS [4, 8]: 0%
- APPROX. NET LOG10 CHANGE IN TUMOR BURDEN AT END OF Rx [4, 8]: 0
- MEDIAN DAY OF DEATH [4, 8]: 9.0
- 50-DAY SURV/TOTAL [4, 9]: 0/6
- % ILS [4, 9]: −6%
- APPROX. NET LOG10 CHANGE IN TUMOR BURDEN AT END OF Rx [4, 9]: +0.4
- MEDIAN DAY OF DEATH [4, 9]: 8.5

SMILES: COc1nc(C(Cl)(Cl)Cl)c(Cl)c(OC(=O)COC(C)=O)c1Cl [DM-AA-PEN]
- Median % ILS (dying mice only) ([1]; IP 135 mg/kg/dose): +67%
- Tumor-Free-Surv/Total ([1]; IP 135 mg/kg/dose): 0/5
- Tumor-Free-Surv/Total ([1]; oral (gavage) 135 mg/kg/dose): 2/5

SMILES: N[C@@H](Cc1ccc(N(CCCl)CCCl)cc1)C(=O)O [L-PAM (melphalan), melphalan]
- 50-DAY SURV/TOTAL [5, 10]: 0/6
- % ILS [5, 10]: +14%
- APPROX. NET LOG10 CHANGE IN TUMOR BURDEN AT END OF Rx [5, 10]: −1.8
- MEDIAN DAY OF DEATH [5, 10]: 18.0
- 50-DAY SURV/TOTAL [5, 11]: 0/6
- % ILS [5, 11]: +14%
- APPROX. NET LOG10 CHANGE IN TUMOR BURDEN AT END OF Rx [5, 11]: −1.8
- MEDIAN DAY OF DEATH [5, 11]: 18.0
- 50-DAY SURV/TOTAL ([3]; IP 15.0 mg/kg/dose, Q1D × 1 (1)): 6/6
- 50-DAY SURV/TOTAL [3, 8]: 6/6
- % ILS [3, 8]: +209%
- APPROX. NET LOG10 CHANGE IN TUMOR BURDEN AT END OF Rx [3, 8]: ca −8.8
- MEDIAN DAY OF DEATH [3, 8]: 34.0

SMILES: CCCCCCCC(=O)Oc1c(Cl)c(OC)nc(C(Cl)(Cl)Cl)c1Cl [DM-O-PEN]
- activity against i.c.-implanted tumor in comparison to PEN and DM-PEN (in words) [1]: significant activity
- Tumor-Free-Surv/Total ([1]; IP 90 mg/kg/dose): 0/5
- Survivors [1, 7]: 0/5

SMILES: COc1nc(C(Cl)(Cl)Cl)c(Cl)c(OC(=O)c2ccc([N+](=O)[O-])cc2)c1Cl [DM-NB-PEN]
- Tumor-Free-Surv/Total ([2]; IP 135 mg/kg/dose): 5/5

SMILES: COc1nc(C(Cl)(Cl)Cl)c(Cl)c(OC(=O)CBr)c1Cl [DM-BA-PEN]
- T-C ([2]; IP 135 mg/kg/dose): >41.0 days
- Tumor-Free-Surv/Total ([2]; IP 135 mg/kg/dose): 2/5

SMILES: COc1nc(C(Cl)(Cl)Cl)c(Cl)c(O)c1Cl [DM-PEN, 3,5-dichloro-2-methoxy-4-hydroxy-6-(trichloromethyl)pyridine]
- 50-DAY SURV/TOTAL [5, 12]: 0/6
- % ILS [5, 12]: −4%
- APPROX. NET LOG10 CHANGE IN TUMOR BURDEN AT END OF Rx [5, 12]: +1.6
- 50-DAY SURV/TOTAL [5, 13]: 0/6
- % ILS [5, 13]: −8%
- APPROX. NET LOG10 CHANGE IN TUMOR BURDEN AT END OF Rx [5, 13]: +1.6
- MEDIAN DAY OF DEATH [5, 13]: 13.0
- 50-DAY SURV/TOTAL [5, 14]: 0/6
- % ILS [5, 14]: −4%
- APPROX. NET LOG10 CHANGE IN TUMOR BURDEN AT END OF Rx [5, 14]: +1.6
- Toxicity / lethality level at the dosage (LD) [5, 14]: LD33
- activity in the P388/L-PAM tumor model (in words) ([5]; mouse, in vivo): none of the three showed significant activity
- Median % ILS (based on dying mice only) [1, 7]: 60%
- Survivors [1, 7]: 0/5
- 50-DAY SURV/TOTAL [3, 15]: 0/6
- % ILS [3, 15]: +45%
- APPROX. NET LOG10 CHANGE IN TUMOR BURDEN AT END OF Rx [3, 15]: −0.8
- MEDIAN DAY OF DEATH [3, 15]: 16.0
- 50-DAY SURV/TOTAL [3, 16]: 0/6
- % ILS [3, 16]: +72%
- APPROX. NET LOG10 CHANGE IN TUMOR BURDEN AT END OF Rx [3, 16]: −3.1
- MEDIAN DAY OF DEATH [3, 16]: 19.0
- 50-DAY SURV/TOTAL [3, 17]: 0/6
- % ILS [3, 17]: −23%
- Toxicity / lethality level at the dosage (LD) [3, 17]: TOXIC
- MEDIAN DAY OF DEATH [3, 17]: 8.5
- 50-DAY SURV/TOTAL [6, 15]: 0/6
- % ILS [6, 15]: +22%
- APPROX. NET LOG10 CHANGE IN TUMOR BURDEN AT END OF Rx [6, 15]: +0.9
- 50-DAY SURV/TOTAL [6, 16]: 0/6
- % ILS [6, 16]: +54%
- APPROX. NET LOG10 CHANGE IN TUMOR BURDEN AT END OF Rx [6, 16]: −1.1
- MEDIAN DAY OF DEATH [6, 16]: 17.0
- 50-DAY SURV/TOTAL [6, 17]: 0/6
- % ILS [6, 17]: +31%
- APPROX. NET LOG10 CHANGE IN TUMOR BURDEN AT END OF Rx [6, 17]: +0.3
- 50-DAY SURV/TOTAL [4, 15]: 0/6
- % ILS [4, 15]: +33%
- APPROX. NET LOG10 CHANGE IN TUMOR BURDEN AT END OF Rx [4, 15]: +0.8
- MEDIAN DAY OF DEATH [4, 15]: 12.0
- 50-DAY SURV/TOTAL [4, 16]: 0/6
- % ILS [4, 16]: +55%
- APPROX. NET LOG10 CHANGE IN TUMOR BURDEN AT END OF Rx [4, 16]: −0.8
- MEDIAN DAY OF DEATH [4, 16]: 14.0
- 50-DAY SURV/TOTAL [4, 17]: 0/6
- % ILS [4, 17]: +88%
- APPROX. NET LOG10 CHANGE IN TUMOR BURDEN AT END OF Rx [4, 17]: −3.1
- Toxicity / lethality level at the dosage (LD) [4, 17]: LD17
- MEDIAN DAY OF DEATH [4, 17]: 17.0

SMILES: COc1nc(C(Cl)(Cl)Cl)c(Cl)c(OC(=O)c2ccc(CCl)cc2)c1Cl [DM-CMB-PEN]
- Median % ILS (dying mice only) ([1]; IP 90 mg/kg/dose): +73%
- Tumor-Free-Surv/Total ([1]; IP 90 mg/kg/dose): 0/5

SMILES: O=P1(N(CCCl)CCCl)NCCCO1 (centres unmarked) [CPA (cyclophosphamide), cyclophosphamide]
- 50-DAY SURV/TOTAL [3, 18]: 1/6
- APPROX. NET LOG10 CHANGE IN TUMOR BURDEN AT END OF Rx [3, 18]: ca −8.8
- MEDIAN DAY OF DEATH [3, 18]: 30.0
- 50-DAY SURV/TOTAL [3, 19]: 6/6
- 50-DAY SURV/TOTAL [6, 18]: 0/6
- % ILS [6, 18]: +9%
- APPROX. NET LOG10 CHANGE IN TUMOR BURDEN AT END OF Rx [6, 18]: −0.6
- MEDIAN DAY OF DEATH [6, 18]: 12.0
- 50-DAY SURV/TOTAL [6, 19]: 0/6
- % ILS [6, 19]: +27%
- APPROX. NET LOG10 CHANGE IN TUMOR BURDEN AT END OF Rx [6, 19]: −1.7
- MEDIAN DAY OF DEATH [6, 19]: 14.0
